Publication PMC11816618, “Pharmacokinetic profile and in vivo anticancer efficacy of anagrelide administered subcutaneously in rodents” (Drug Delivery, 2025)

Key:
[1] = PK comparison between three administration routes (IV, PO, SC), plasma LC-MS/MS; format: in vivo, Sprague-Dawley rats; conditions: for Tmax: male, plasma, read-out: Tmax
Experimental: The rats were purchased from SPF Biotechnology Co. Ltd. (Beijing, China). Animals were acclimated to the test facility for at least three days, during which their general health was checked by veterinary staff or other authorized personnel. Animals were kept in polycarbonate cages containing absorbent corncob bedding, with a maintained temperature range of +20-25 °C and a 12-h light/dark cycle. Animals had access to food and drinking water ad libitum during acclimation and the experiment. At the end of the study, the rats were euthanized by exposure to an increasing concentration of CO2. […] The SC formulation was prepared by dissolving micronized ANA (5 μm particle size) in an oily triglyceride ester of saturated caprylic and capric fatty acids and glycerol (Miglyol® 810 N, IOI Oleo GmbH, Hamburg, Germany). […] To evaluate plasma concentration-time profiles, blood samples were collected from the jugular vein in EDTA tubes and stored at -70 °C until further analysis. […] In the second PK analysis in rats with a longer follow-up time, blood samples were collected at 0, 30 min, 1 […], and 56 d after dosage. SD rat plasma was analyzed for ANA, 3-OH-ANA, and RL603 concentrations by Pharmaron (Beijing, China). ANA, 3-hydroxy-anagrelide (CAS No. 733043-41-9, Cat. No. sc-206647, Santa Cruz Biotechnology, Inc., Dallas, TX), and RL603 (CAS No. 327602-34-6, Cat. No. sc-391661, Santa Cruz Biotechnology, Inc., Dallas, TX) were used as reference items in calibration standards and quality control (QC) samples. The HPLC and the MS/MS (LCMS-8060) instruments were both from SHIMADZU (Kyoto, Japan), and the column used was a Raptor Biphenyl column (2.7 μm, 50 × 2.1 mm, Restek, Bellefonte, PA). The desired serial concentrations of working solutions were achieved by diluting analyte stock solution with 50% acetonitrile in water. […] These QC samples were prepared on the day of analysis in the same way as calibration standards. Carbamazepine (CAS No. 298-46-4, Sigma-Aldrich, St. Louis, MO) was used as an internal standard for all analytes. Altogether, 55 μL of standards, 55 μL of QC samples, and 55 μL of test samples (comprising 50 μL of plasma and 5 μL of blank solution) were added to 200 μL of acetonitrile containing an internal standard mixture to precipitate protein. The samples were then vortexed for 30 seconds. After centrifugation at 4000 × g (+4 °C) for 5 min, the supernatant was diluted threefold with water, and 2 μL of the diluted supernatant was injected into the LC/MS/MS system for quantitative analysis. The transitions were 256.00-198.90 m/z for anagrelide hydrochloride, 272.00-198.95 m/z for 3-hydroxy anagrelide, 216.00-198.95 m/z for RL603, and 237.20-194.10 m/z for carbamazepine. […] Plasma drug concentration-time profiles were drawn by the average plasma concentrations at specific time points using Microsoft Excel (Redmond, WA). […] Certara, Princeton, NJ) software. Averages of each variable were used when PK values were compared.

[2] = Long-term plasma exposure after a single SC ANA dose (56-day follow-up), plasma LC-MS/MS; format: in vivo, Sprague-Dawley rats; conditions: male SD rats, n = 5, 56-day follow-up
Experimental: To monitor the sustained release of SC ANA in the long term, 10 male SD rats were treated with a single dose of either 7.0 mg/kg (n = 5) or 35.0 mg/kg (n = 5). The rats were purchased from SPF Biotechnology Co. Ltd. (Beijing, China). Animals were acclimated to the test facility for at least three days, during which their general health was checked by veterinary staff or other authorized personnel. Animals were kept in polycarbonate cages containing absorbent corncob bedding, with a maintained temperature range of +20-25 °C and a 12-h light/dark cycle. Animals had access to food and drinking water ad libitum during acclimation and the experiment. At the end of the study, the rats were euthanized by exposure to an increasing concentration of CO2. […] The SC formulation was prepared by dissolving micronized ANA (5 μm particle size) in an oily triglyceride ester of saturated caprylic and capric fatty acids and glycerol (Miglyol® 810 N, IOI Oleo GmbH, Hamburg, Germany). […] To evaluate plasma concentration-time profiles, blood samples were collected from the jugular vein in EDTA tubes and stored at -70 °C until further analysis. […] In the second PK analysis in rats with a longer follow-up time, blood samples were collected at 0, 30 min, 1 […], and 56 d after dosage. SD rat plasma was analyzed for ANA, 3-OH-ANA, and RL603 concentrations by Pharmaron (Beijing, China). ANA, 3-hydroxy-anagrelide (CAS No. 733043-41-9, Cat. No. sc-206647, Santa Cruz Biotechnology, Inc., Dallas, TX), and RL603 (CAS No. 327602-34-6, Cat. No. sc-391661, Santa Cruz Biotechnology, Inc., Dallas, TX) were used as reference items in calibration standards and quality control (QC) samples. The HPLC and the MS/MS (LCMS-8060) instruments were both from SHIMADZU (Kyoto, Japan), and the column used was a Raptor Biphenyl column (2.7 μm, 50 × 2.1 mm, Restek, Bellefonte, PA). The desired serial concentrations of working solutions were achieved by diluting analyte stock solution with 50% acetonitrile in water. […] QC samples at 0.5, 1, 2, 50, and 800 ng/mL were prepared independently of those used for the calibration curves. These QC samples were prepared on the day of analysis in the same way as calibration standards. Carbamazepine (CAS No. 298-46-4, Sigma-Aldrich, St. Louis, MO) was used as an internal standard for all analytes. Altogether, 55 μL of standards, 55 μL of QC samples, and 55 μL of test samples (comprising 50 μL of plasma and 5 μL of blank solution) were added to 200 μL of acetonitrile containing an internal standard mixture to precipitate protein. The samples were then vortexed for 30 seconds. After centrifugation at 4000 × g (+4 °C) for 5 min, the supernatant was diluted threefold with water, and 2 μL of the diluted supernatant was injected into the LC/MS/MS system for quantitative analysis. The transitions were 256.00-198.90 m/z for anagrelide hydrochloride, 272.00-198.95 m/z for 3-hydroxy anagrelide, 216.00-198.95 m/z for RL603, and 237.20-194.10 m/z for carbamazepine. […] Plasma drug concentration-time profiles were drawn by the average plasma concentrations at specific time points using Microsoft Excel (Redmond, WA). […] Certara, Princeton, NJ) software. Averages of each variable were used when PK values were compared.

[3] = Sprague-Dawley, rat, analyte in plasma after single ANA dose 0.5 mg/kg IV, male SD rats, n = 3, mean ± SD
[4] = Sprague-Dawley, rat, analyte in plasma after single ANA dose 2.5 mg/kg PO, male SD rats, n = 3, mean ± SD
[5] = Sprague-Dawley, rat, analyte in plasma after single SC ANA dose 7 mg/kg
[6] = Sprague-Dawley, rat, analyte in plasma after single SC ANA dose 35 mg/kg
[7] = analyte in plasma after single SC ANA dose 7 mg/kg
[8] = analyte in plasma after single SC ANA dose 35 mg/kg

## NC1=Nc2ccc(Cl)c(Cl)c2CN1 [RL603, 2‐amino‐5,6‐dichloro‐3,4‐dihydroquinazolin]
[1]; [3]
  Cmax: 12.3 ± 2.85 ng/mL
  half-life: 0.98 ± 0.24 h
[1]; [4]
  AUC(0-inf): 34.8 ± 9.94 ng·h/mL
  AUC(0-t): 24.9 ± 4.29 ng·h/mL
  Cmax: 3.48 ± 1.01 ng/mL
  half-life: 13.1 ± 5.29 h
[1]; after SC ANA 1.0 mg/kg, SD rats
  plasma concentration (not detected above the quantifiable limit): < 0.2 ng/mL
[1]; Sprague-Dawley, rat, iv, 0.5 mg/kg, analyte in plasma after single ANA dose 0.5 mg/kg IV, male SD rats, n = 3, mean ± SD
  Tmax: 1 ± 0.87 h
[1]; Sprague-Dawley, rat, po, 2.5 mg/kg, analyte in plasma after single ANA dose 2.5 mg/kg PO, male SD rats, n = 3, mean ± SD
  Tmax: 1.67 ± 0.58 h
[2]; [5]
  AUC(0-inf): 1530 ± 1540 ng·h/mL
  AUC(0-t): 351 ± 85.7 ng·h/mL
  half-life: 895 h
[2]; Sprague-Dawley, rat, analyte in plasma after single SC ANA dose 7 mg/kg, read-out: Cmax
  Cmax: 1.08 ± 0.26 ng/mL
[2]; Sprague-Dawley, rat, analyte in plasma after single SC ANA dose 7 mg/kg, read-out: Tmax
  Tmax: 19.6 ± 9.84 h
[2]; [6]
  AUC(0-inf): 2280 ± 1210 ng·h/mL
  AUC(0-t): 925 ± 141 ng·h/mL
  half-life: 285 h
[2]; Sprague-Dawley, rat, analyte in plasma after single SC ANA dose 35 mg/kg, read-out: Cmax
  Cmax: 2.4 ± 1.28 ng/mL
[2]; Sprague-Dawley, rat, analyte in plasma after single SC ANA dose 35 mg/kg, read-out: Tmax
  Tmax: 92.8 ± 113 h

## O=C1NC2=Nc3ccc(Cl)c(Cl)c3CN2C1O (centres unmarked) [3-Hydroxy-anagrelide, 3′-hydroxy-anagrelide]
[2]; [7]
  AUCinf: 699.77 ± 705.45 ng·h/mL
  AUClast: 86.57 ± 60.96 ng·h/mL
  Cmax: 0.46 ± 0.09 ng/mL
  T1/2: 1099 ± 945.8 h
  Tmax: 19.00 ± 35.34 h
[2]; [8]
  AUCinf: 2492.52 ± 2459.44 ng·h/mL
  AUClast: 563.51 ± 106.90 ng·h/mL
  Cmax: 1.75 ± 0.61 ng/mL
  T1/2: 377.8 ± 200 h
  Tmax: 46.00 ± 95.07 h
